{"source": "patent US6451831B1", "about": "“Agent for hypoalbuminaemia” (Nippon Zoki Pharmaceutical Co., Ltd., priority 2001, dated 2002)", "key": {"patients": {"test_system": "patients", "experiment": "Clinical tests: toxicity and side effects", "format": "in vivo, human", "conditions": "clinically confirmed"}, "[1]": {"test_system": "patients suffering from hypoalbuminaemia (serum albumin value less than 3.0 g/dL)", "experiment": "Clinical test: serum albumin values in patients suffering from hypoalbuminaemia", "format": "in vivo, human", "protocol": "The compound of the present invention (Compound 21 ) was administered to 6 patients suffering from hypoalbuminaemia (serum albumin value was less than 3.0 g/dL) at the dose of 200 mg/day (dosage for only Patient 1 was 400 mg/day). Serum albumin values were compared between before and after administration for 24 weeks (after 16 weeks in case of only Patient 2). […] In another case of tested subjects showing a normal value of serum albumin, any change of the value was not noted by the administration of the compounds of the present invention."}}}
{"smiles": "CN1C(=O)NC(=O)C1O", "note": "(stereo not drawn) [Compound 21, 5-Hydroxy-1-methylhydantoin]", "values": [{"measurement": "Toxicity and side effects (in words)", "setting": "patients", "result": "low toxicity and lower side effects"}, {"measurement": "Effect on serum albumin values (in words)", "setting": "[1]; 6 patients with hypoalbuminaemia, 200 mg/day (Patient 1: 400 mg/day), 24 weeks (Patient 2: 16 weeks), paired t-test", "result": "significantly increased"}, {"measurement": "Serum albumin value After Administration for 24 weeks", "setting": "[1]; Patient 1, 400 mg/day, 24 weeks, before administration 1.7 g/dL", "result": 2.1, "unit": "g/dL"}, {"measurement": "Serum albumin value After Administration for 24 weeks", "setting": "[1]; Patient 2, 200 mg/day, after 16 weeks according to text, before administration 2.0 g/dL", "result": 2.3, "unit": "g/dL"}, {"measurement": "Serum albumin value After Administration for 24 weeks", "setting": "[1]; Patient 3, 200 mg/day, 24 weeks, before administration 2.3 g/dL", "result": 3.4, "unit": "g/dL"}, {"measurement": "Serum albumin value After Administration for 24 weeks", "setting": "[1]; Patient 4, 200 mg/day, 24 weeks, before administration 2.4 g/dL", "result": 2.7, "unit": "g/dL"}, {"measurement": "Serum albumin value After Administration for 24 weeks", "setting": "[1]; Patient 5, 200 mg/day, 24 weeks, before administration 2.5 g/dL", "result": 3.2, "unit": "g/dL"}, {"measurement": "Serum albumin value After Administration for 24 weeks", "setting": "[1]; Patient 6, 200 mg/day, 24 weeks, before administration 2.7 g/dL", "result": 3.0, "unit": "g/dL"}, {"measurement": "Serum albumin value After Administration for 24 weeks, Mean Value", "setting": "[1]; mean of 6 patients, before administration 2.3 ± 0.2 g/dL, p < 0.01, paired t-test", "result": "2.8 ± 0.2", "unit": "g/dL"}]}
